Measurements: ChEMBL document CHEMBL1909046, “DrugMatrix in vitro pharmacology data”

Key:
[1] = DRUGMATRIX: ATPase, Na+/K+ enzyme inhibition (substrate: ATP); type: tissue-based, Sus scrofa, Heart; settings: Not Active = under 50% inhibition at 10 µM
[2] = target: C-C chemokine receptor type 5 (Homo sapiens, UniProt P51681); type: cell membranes, Membrane; settings: hek293; further: in other assays of this panel Not Active means under 50% inhibition at 10 µM
[3] = target: Protein kinase C alpha type (Homo sapiens, UniProt P17252); type: cell-based; settings: sf9;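 further: inhibition of PKCalpha kinase activity measured in an enzyme assay with histone as the phosphorylation substrate; in other assays of this panel Not Active means under 50% inhibition at 10 µM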
[4] = target: T1, Alpha-2A adrenergic receptor (Homo sapiens, UniProt P08913); type: cell membranes, Sf9, Membrane; further: in other assays of this panel Not Active means under 50% inhibition at 10 µM
T1 sequence (P08913 whole entry): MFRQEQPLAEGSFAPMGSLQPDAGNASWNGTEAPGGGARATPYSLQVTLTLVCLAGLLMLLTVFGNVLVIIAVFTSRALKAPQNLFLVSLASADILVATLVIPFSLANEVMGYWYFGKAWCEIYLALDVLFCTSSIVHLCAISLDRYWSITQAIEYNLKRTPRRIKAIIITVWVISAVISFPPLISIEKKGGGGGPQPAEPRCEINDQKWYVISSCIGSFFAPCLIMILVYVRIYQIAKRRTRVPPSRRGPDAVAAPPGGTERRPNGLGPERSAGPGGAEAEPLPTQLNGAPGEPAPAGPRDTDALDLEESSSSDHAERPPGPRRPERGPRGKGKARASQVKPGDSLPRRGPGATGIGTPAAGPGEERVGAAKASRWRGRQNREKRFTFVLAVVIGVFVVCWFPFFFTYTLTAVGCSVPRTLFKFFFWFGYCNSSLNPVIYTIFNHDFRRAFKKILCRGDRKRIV

[5] = target: Beta-2 adrenergic receptor (Homo sapiens, UniProt P07550); assay: DRUGMATRIX: Adrenergic beta2 radioligand binding (ligand: [3H] CGP-12177); type: cell membranes, CHO, Membrane; settings: cho; Not Active = under 50% inhibition at 10 µM
Carbonic anhydrase 2 = Carbonic anhydrase 2 (Homo sapiens, UniProt P00918); assay: DRUGMATRIX: Carbonic Anhydrase II enzyme inhibition (substrate: 4-Nitrophenyl acetate (4-NPA)); type: tissue-based; settings: erythrocyte; Not Active = under 50% inhibition at 10 µM
D(1A) dopamine receptor = D(1A) dopamine receptor (Homo sapiens, UniProt P21728); assay: DRUGMATRIX: Dopamine D1 radioligand binding (ligand: [3H] SCH-23390); type: cell membranes, CHO, Membrane; settings: cho; Not Active = under 50% inhibition at 10 µM
[6] = target: T2, 3-hydroxy-3-methylglutaryl-coenzyme A reductase (Homo sapiens, UniProt P04035); set-up: species or system Escherichia coli;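 further: enzyme inhibition assay of HMG-CoA reductase using radiolabeled [14C]HMG-CoA as substrate; in other assays of this panel Not Active means under 50% inhibition at 10 µM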
T2 sequence (P04035 whole entry): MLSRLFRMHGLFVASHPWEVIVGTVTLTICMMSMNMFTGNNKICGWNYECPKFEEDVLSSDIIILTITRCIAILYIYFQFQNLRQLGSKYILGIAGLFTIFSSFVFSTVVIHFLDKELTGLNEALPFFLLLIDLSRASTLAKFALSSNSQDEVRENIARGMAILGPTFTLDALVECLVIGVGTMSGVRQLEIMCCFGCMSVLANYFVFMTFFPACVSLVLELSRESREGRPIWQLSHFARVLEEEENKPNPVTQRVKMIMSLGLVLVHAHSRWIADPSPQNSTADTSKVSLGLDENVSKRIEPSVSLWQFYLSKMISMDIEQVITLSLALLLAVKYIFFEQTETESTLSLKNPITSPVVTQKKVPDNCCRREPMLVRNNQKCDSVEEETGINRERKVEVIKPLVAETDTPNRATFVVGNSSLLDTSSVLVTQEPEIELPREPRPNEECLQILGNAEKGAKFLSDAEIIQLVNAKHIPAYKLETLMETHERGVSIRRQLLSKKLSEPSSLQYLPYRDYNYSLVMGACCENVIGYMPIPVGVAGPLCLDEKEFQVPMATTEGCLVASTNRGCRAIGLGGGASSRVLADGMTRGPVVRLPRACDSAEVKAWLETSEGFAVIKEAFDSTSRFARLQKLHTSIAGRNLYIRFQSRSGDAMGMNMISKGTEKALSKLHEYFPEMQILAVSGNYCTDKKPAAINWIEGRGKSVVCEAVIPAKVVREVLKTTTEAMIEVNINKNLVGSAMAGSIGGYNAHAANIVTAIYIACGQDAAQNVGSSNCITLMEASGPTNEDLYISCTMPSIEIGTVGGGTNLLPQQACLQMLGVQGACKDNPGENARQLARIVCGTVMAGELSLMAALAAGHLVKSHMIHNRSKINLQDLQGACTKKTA

B2 bradykinin receptor = target: T3, B2 bradykinin receptor (Homo sapiens, UniProt P30411); type: cell membranes, Membrane; settings: chem-1; further: in other assays of this panel Not Active means under 50% inhibition at 10 µM
T3 sequence (P30411 whole entry): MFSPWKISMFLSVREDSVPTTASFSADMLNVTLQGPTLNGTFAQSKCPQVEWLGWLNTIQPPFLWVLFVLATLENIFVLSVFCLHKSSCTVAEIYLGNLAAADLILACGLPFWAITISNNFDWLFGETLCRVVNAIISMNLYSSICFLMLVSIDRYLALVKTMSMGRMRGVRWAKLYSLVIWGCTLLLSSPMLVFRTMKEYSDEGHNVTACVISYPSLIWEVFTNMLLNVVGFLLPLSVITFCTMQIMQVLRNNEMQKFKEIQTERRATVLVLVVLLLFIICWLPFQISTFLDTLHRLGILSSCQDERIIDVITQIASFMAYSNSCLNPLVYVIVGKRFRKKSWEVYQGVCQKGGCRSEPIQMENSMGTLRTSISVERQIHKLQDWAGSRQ

C-C chemokine receptor type 5, sequence (P51681 whole entry): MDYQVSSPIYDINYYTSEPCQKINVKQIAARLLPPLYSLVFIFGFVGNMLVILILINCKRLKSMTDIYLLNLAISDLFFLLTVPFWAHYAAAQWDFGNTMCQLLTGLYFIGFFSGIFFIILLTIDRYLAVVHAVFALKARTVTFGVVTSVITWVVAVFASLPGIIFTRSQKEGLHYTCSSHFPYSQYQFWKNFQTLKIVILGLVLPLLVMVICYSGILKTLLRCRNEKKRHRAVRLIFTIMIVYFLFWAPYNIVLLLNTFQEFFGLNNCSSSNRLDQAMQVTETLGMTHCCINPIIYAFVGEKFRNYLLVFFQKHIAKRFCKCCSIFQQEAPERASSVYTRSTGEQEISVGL
D(1A) dopamine receptor, sequence (P21728 whole entry): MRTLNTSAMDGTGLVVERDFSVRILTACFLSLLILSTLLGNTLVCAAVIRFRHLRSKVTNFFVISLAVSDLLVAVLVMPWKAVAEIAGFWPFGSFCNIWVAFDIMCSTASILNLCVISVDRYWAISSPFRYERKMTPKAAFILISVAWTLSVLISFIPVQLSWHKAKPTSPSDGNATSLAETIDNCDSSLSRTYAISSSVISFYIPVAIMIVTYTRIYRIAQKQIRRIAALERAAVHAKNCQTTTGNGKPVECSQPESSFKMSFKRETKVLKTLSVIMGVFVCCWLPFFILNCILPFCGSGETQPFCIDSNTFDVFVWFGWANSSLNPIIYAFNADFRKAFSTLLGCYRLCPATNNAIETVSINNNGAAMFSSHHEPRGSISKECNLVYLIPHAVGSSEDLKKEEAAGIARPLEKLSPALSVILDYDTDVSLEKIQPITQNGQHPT

Row | Molecule | IC50 [1] | Ki [1] | IC50 [2] | IC50 [3] | IC50 ([4]; sf9) | IC50 [5] | IC50 (Carbonic anhydrase 2) | IC50 (D(1A) dopamine receptor) | IC50 [6] | IC50 (B2 bradykinin receptor) | IC50 ([4]; read-out: IC50) | Ki ([4]; read-out: Ki) | Ki [2] | Ki [3] | Ki ([4]; sf9) | Ki [5] | Ki (Carbonic anhydrase 2) | Ki (D(1A) dopamine receptor) | Ki [6] | Ki (B2 bradykinin receptor)
1 | O=C(Oc1ccccc1C(=O)O)c1ccccc1O [SALSALATE] | Not Active | Not Active | Not Active | Not Active | Not Active | Not Active | Not Active | Not Active | Not Active | Not Active |  |  |  |  |  |  |  |  |  | 
2 | CNC1(c2ccccc2Cl)CCCCC1=O (stereo unspecified) [KETAMINE] | Not Active | Not Active | Not Active | Not Active | Not Active | Not Active | Not Active | Not Active | Not Active | Not Active |  |  |  |  |  |  |  |  |  | 
3 | Fc1ccc(C(c2ccc(F)cc2)N2CCN(C/C=C/c3ccccc3)CC2)cc1 [FLUNARIZINE] |  |  | Not Active | Not Active |  | Not Active | Not Active |  | Not Active | Not Active | 581 nM | 218 nM |  |  |  |  |  |  |  | 
4 | CN[C@H]1CC[C@@H](c2ccc(Cl)c(Cl)c2)c2ccccc21 [SERTRALINE] |  |  | Not Active | Not Active |  | Not Active | Not Active |  | Not Active | Not Active |  |  |  |  |  |  |  |  |  | 
5 | O=C(Nc1ccc(Br)cc1)c1cc(Br)cc(Br)c1O [TRIBROMSALAN] | Not Active | Not Active | Not Active | Not Active | Not Active | Not Active | Not Active | Not Active | Not Active | Not Active |  |  |  |  |  |  |  |  |  | 
6 | CC(C)NCC(O)c1ccc(O)c(O)c1 (stereo unspecified) [ISOPROTERENOL] | Not Active | Not Active | Not Active | Not Active | Not Active |  | Not Active | Not Active | Not Active | Not Active |  |  |  |  |  |  |  |  |  | 
7 | Cc1cccc(C)c1OCC(C)N (stereo unspecified) [MEXILETINE] | Not Active | Not Active | Not Active | Not Active | Not Active | Not Active | Not Active | Not Active | Not Active | Not Active |  |  |  |  |  |  |  |  |  | 
8 | MANGANESE CHLORIDE ANHYDROUS | Not Active | Not Active | Not Active | Not Active | Not Active | Not Active | Not Active | Not Active | Not Active | Not Active |  |  | Not Active | Not Active | Not Active | Not Active | Not Active | Not Active | Not Active | Not Active
9 | CCN(CC)CCNC(=O)c1cc(S(C)(=O)=O)ccc1OC [TIAPRIDE] | Not Active | Not Active | Not Active | Not Active |  | Not Active | Not Active | Not Active | Not Active | Not Active | 2080 nM | 779 nM |  |  |  |  |  |  |  | 
10 | Clc1ccc(COC(Cn2ccnc2)c2ccc(Cl)cc2Cl)cc1 (stereo unspecified) [ECONAZOLE] |  |  | Not Active | Not Active |  | Not Active | Not Active |  | Not Active | Not Active |  |  |  |  |  |  |  |  |  | 
11 | COc1c2occc2cc2ccc(=O)oc12 [METHOXSALEN] | Not Active | Not Active | Not Active | Not Active | Not Active | Not Active | Not Active | Not Active | Not Active | Not Active |  |  |  |  |  |  |  |  |  | 
12 | COc1ccc(CCN(C)CCCC(C#N)(c2ccc(OC)c(OC)c2)C(C)C)cc1OC (stereo unspecified) | Not Active | Not Active | Not Active | Not Active |  | Not Active | Not Active | Not Active | Not Active | Not Active |  |  |  |  |  |  |  |  |  | 
13 | CCN(CC)CCOc1ccc(/C(=C(/Cl)c2ccccc2)c2ccccc2)cc1 [ENCLOMIPHENE] |  |  | Not Active | Not Active |  | Not Active | Not Active |  | Not Active | Not Active |  |  |  |  |  |  |  |  |  | 
14 | Clc1ccccc1CN1CCc2sccc2C1 [TICLOPIDINE] | Not Active | Not Active | Not Active | Not Active |  | Not Active | Not Active | Not Active | Not Active | Not Active |  |  |  |  |  |  |  |  |  | 
15 | SODIUM ORTHOVANAD |  |  | Not Active | Not Active | Not Active | Not Active | Not Active | Not Active | Not Active | Not Active |  |  | Not Active | Not Active | Not Active | Not Active | Not Active | Not Active | Not Active | Not Active
16 | CC(C)NCC(O)c1ccc(NS(C)(=O)=O)cc1 (stereo unspecified) [SOTALOL] | Not Active | Not Active | Not Active | Not Active | Not Active |  | Not Active | Not Active | Not Active | Not Active |  |  |  |  |  |  |  |  |  | 
17 | CN(C)CCOC(c1ccccc1)c1ccccc1 [DIPHENHYDRAMINE] |  |  | Not Active | Not Active | Not Active | Not Active | Not Active |  | Not Active | Not Active |  |  |  |  |  |  |  |  |  | 
18 | CCN1CCC[C@H]1CNC(=O)c1cc(S(N)(=O)=O)ccc1OC [LEVOSULPIRIDE] | Not Active | Not Active | Not Active | Not Active | Not Active | Not Active |  | Not Active | Not Active | Not Active |  |  |  |  |  |  |  |  |  | 
19 | CNCCC(Oc1ccc(C(F)(F)F)cc1)c1ccccc1 (stereo unspecified) [FLUOXETINE] |  |  | Not Active | Not Active | Not Active | Not Active | Not Active |  | Not Active | Not Active |  |  |  |  |  |  |  |  |  | 
20 | Cc1ccc(NC(=O)c2ccc(CN3CCN(C)CC3)cc2)cc1Nc1nccc(-c2cccnc2)n1 [IMATINIB] |  |  | Not Active | Not Active | Not Active | Not Active |  |  | Not Active | Not Active |  |  |  |  |  |  |  |  |  | 
21 | CO[C@@H]1[C@@H](OC)[C@H](C)[C@@](O)(CC(=O)O)O[C@H]1[C@H](C)[C@H]1O[C@@]2(CC[C@@](C)([C@H]3CC[C@@](C)([C@@H]4O[C@@H]([C@H]5O[C@](C)(O)[C@H](C)C[C@@H]5C)C[C@@H]4O[C@@H]4C[C@H](OC)[C@@H](OC)[C@H](C)O4)O3)O2)C[C@H](O)[C@H]1C [MADURAMICIN ACID] | Not Active | Not Active | Not Active | Not Active |  | Not Active | Not Active |  | Not Active | Not Active | 180 nM | 67 nM |  |  |  |  |  |  |  | 
